Data as given in ChEMBL document CHEMBL5058646 (2022).

Key:
[1] = target: T1, Zinc finger and BTB domain-containing protein 11 (Homo sapiens) (UniProt O95625); settings: SUD4, Compound concentration 1.0 uM
T1 sequence (whole entry): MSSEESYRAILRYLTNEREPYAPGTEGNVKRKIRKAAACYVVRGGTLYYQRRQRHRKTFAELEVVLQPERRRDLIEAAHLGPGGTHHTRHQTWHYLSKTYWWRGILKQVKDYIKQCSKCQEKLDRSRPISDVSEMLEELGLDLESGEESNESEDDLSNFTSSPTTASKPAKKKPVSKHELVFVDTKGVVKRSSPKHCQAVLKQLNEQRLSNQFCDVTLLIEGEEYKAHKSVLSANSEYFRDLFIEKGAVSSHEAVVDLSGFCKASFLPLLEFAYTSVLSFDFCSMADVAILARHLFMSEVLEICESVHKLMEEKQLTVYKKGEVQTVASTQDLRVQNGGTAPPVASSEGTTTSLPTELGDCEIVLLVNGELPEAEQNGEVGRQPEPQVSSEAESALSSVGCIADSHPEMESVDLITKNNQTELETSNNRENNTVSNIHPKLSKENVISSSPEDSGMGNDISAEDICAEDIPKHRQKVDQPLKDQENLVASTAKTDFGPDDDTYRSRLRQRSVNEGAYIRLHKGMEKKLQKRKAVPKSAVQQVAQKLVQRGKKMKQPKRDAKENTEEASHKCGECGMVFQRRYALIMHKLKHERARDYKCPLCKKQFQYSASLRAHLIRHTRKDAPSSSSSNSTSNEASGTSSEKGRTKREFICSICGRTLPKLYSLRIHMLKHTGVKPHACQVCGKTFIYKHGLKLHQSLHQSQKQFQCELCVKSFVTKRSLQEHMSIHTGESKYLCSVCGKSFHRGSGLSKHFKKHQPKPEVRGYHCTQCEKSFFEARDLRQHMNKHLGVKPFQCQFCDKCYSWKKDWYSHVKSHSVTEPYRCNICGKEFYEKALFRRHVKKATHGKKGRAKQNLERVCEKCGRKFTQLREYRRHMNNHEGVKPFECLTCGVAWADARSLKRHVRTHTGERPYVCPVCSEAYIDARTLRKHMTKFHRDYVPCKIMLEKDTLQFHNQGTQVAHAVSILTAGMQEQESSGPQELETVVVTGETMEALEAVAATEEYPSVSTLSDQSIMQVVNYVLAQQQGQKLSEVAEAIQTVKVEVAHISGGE

[2] = target: Serine/threonine-protein kinase 17B (Homo sapiens) (UniProt O94768); experiment: STK17B SGC Tm panel (DSF); settings: Compound concentration 20.0 uM
Serine/threonine-protein kinase 17B (Homo sapiens), sequence (O94768 whole entry): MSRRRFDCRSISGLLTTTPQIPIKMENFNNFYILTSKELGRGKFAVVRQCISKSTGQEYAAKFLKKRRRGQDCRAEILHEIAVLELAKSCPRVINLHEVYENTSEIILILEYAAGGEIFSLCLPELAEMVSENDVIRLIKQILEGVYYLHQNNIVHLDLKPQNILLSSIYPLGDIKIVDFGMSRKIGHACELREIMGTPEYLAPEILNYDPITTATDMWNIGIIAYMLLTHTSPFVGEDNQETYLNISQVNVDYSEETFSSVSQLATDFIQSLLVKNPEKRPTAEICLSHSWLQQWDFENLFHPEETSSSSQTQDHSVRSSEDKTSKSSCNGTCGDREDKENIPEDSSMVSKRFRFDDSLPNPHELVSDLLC

[3] = target: Vasopressin V1a receptor (Homo sapiens) (UniProt P37288); experiment: GPCRScan assay: inhibition of V1A; parameters: radioligand conc. used [nm], parental cells; settings: Compound concentration 10.0 uM
Vasopressin V1a receptor (Homo sapiens), sequence (P37288 whole entry, looked up, the tested form may be a part): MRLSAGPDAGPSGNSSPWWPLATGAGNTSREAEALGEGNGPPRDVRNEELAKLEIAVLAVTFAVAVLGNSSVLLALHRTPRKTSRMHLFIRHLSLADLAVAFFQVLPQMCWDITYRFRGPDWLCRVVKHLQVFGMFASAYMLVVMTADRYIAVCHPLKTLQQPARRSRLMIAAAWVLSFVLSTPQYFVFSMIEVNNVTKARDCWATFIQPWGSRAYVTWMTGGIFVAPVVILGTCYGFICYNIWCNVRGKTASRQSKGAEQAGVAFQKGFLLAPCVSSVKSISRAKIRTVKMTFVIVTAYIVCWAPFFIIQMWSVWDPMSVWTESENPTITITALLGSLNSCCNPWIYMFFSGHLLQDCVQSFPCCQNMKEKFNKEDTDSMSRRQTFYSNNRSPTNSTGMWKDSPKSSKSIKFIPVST

[4] = target: T2, Zinc finger and BTB domain-containing protein 40 (Homo sapiens) (UniProt Q9NUA8); settings: SUD4, Compound concentration 1.0 uM
T2 sequence (whole entry): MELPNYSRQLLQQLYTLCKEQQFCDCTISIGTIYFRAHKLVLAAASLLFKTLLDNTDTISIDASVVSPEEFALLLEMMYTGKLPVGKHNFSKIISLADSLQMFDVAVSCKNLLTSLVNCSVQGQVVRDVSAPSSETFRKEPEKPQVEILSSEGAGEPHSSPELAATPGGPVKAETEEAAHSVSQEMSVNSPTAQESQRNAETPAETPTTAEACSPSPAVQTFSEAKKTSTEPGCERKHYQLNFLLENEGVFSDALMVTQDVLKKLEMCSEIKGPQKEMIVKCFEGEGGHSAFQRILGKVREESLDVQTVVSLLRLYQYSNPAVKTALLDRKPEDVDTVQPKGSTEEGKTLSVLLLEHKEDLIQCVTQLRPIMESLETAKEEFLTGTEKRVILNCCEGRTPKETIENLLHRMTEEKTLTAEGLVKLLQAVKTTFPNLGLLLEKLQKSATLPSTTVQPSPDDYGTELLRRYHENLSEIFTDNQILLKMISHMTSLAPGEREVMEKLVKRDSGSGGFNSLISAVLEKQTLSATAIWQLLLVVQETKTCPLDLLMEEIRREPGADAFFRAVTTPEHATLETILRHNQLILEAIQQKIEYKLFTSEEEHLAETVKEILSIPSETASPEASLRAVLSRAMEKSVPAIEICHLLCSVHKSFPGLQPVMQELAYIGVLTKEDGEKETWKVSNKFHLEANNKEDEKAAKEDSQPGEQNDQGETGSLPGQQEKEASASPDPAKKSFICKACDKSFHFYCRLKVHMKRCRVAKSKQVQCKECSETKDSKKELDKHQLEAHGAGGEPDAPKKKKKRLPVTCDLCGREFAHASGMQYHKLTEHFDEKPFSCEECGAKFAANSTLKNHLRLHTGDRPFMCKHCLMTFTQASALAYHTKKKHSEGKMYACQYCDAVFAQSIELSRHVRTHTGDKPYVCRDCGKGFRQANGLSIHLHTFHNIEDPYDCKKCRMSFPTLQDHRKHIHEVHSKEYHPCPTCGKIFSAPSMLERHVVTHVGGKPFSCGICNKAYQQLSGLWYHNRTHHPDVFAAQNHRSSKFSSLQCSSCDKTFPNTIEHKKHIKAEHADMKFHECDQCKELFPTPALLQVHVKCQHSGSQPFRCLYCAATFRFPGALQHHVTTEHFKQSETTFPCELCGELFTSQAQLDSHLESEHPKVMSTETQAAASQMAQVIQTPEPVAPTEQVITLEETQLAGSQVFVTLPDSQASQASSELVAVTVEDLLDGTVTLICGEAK

[5] = target: T3, Zinc finger and BTB domain-containing protein 9 (Homo sapiens) (UniProt Q96C00); settings: SUD4, Compound concentration 1.0 uM
T3 sequence (whole entry): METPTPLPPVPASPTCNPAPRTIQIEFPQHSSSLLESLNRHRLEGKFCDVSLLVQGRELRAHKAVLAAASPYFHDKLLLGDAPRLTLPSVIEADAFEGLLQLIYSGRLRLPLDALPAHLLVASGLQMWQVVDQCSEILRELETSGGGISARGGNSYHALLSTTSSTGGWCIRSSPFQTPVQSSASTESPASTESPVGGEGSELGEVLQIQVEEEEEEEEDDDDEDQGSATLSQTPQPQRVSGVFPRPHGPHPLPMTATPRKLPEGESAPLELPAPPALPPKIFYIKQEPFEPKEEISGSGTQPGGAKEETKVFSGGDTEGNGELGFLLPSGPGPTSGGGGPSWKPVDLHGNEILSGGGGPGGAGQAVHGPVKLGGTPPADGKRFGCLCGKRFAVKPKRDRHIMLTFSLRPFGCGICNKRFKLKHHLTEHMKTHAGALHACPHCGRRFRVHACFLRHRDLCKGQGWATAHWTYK

[6] = target: MAP/microtubule affinity-regulating kinase 4 (Homo sapiens) (UniProt Q96L34); experiment: MARK4 SGC Tm panel (DSF); settings: Compound concentration 20.0 uM
MAP/microtubule affinity-regulating kinase 4 (Homo sapiens), sequence (Q96L34 whole entry): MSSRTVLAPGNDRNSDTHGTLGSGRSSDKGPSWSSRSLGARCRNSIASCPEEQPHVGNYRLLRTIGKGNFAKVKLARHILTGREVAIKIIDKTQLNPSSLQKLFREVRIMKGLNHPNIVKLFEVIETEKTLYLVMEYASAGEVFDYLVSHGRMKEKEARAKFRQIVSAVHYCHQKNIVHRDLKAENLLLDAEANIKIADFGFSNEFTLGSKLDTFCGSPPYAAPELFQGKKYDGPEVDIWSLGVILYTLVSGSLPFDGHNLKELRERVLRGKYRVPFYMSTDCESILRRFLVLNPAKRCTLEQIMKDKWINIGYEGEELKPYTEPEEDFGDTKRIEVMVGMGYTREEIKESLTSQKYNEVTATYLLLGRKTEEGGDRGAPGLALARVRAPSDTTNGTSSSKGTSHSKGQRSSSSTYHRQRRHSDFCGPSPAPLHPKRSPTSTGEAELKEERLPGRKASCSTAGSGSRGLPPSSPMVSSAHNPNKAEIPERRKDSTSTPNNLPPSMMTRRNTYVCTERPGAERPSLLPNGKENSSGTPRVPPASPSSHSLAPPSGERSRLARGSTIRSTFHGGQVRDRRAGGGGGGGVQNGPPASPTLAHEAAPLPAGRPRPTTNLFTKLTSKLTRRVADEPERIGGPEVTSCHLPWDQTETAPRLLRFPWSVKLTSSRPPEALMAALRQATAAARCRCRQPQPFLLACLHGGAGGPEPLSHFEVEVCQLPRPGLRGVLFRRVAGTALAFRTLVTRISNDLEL

LogFC [1]: 0.0341 | Tm [2]: 43 °C | inhibition [3]: 78.6% | LogFC [4]: -0.00123 | LogFC [5]: -0.0222 | Tm [6]: 36 °C
Compound: C[C@@H]1CN(c2ncc(Cl)c(Nc3ccc4c(c3)n(CCC(C)(C)O)c(=O)n4C)n2)C[C@H](C)C1(F)F
